{
  "source": "paper PMC4508061",
  "about": "“Selectivity Profiling and Biological Activity of Novel β-Carbolines as Potent and Selective DYRK1 Kinase Inhibitors” (PLoS ONE, 2015)",
  "assay_in_all_cases": "ProQinase radiometric kinase panel",
  "conditions_in_all_cases": "mean of 2 exp.",
  "key": {"GRK5": {"target": "GRK5 (Homo sapiens, UniProt P34947)", "sequence (P34947 whole entry)": "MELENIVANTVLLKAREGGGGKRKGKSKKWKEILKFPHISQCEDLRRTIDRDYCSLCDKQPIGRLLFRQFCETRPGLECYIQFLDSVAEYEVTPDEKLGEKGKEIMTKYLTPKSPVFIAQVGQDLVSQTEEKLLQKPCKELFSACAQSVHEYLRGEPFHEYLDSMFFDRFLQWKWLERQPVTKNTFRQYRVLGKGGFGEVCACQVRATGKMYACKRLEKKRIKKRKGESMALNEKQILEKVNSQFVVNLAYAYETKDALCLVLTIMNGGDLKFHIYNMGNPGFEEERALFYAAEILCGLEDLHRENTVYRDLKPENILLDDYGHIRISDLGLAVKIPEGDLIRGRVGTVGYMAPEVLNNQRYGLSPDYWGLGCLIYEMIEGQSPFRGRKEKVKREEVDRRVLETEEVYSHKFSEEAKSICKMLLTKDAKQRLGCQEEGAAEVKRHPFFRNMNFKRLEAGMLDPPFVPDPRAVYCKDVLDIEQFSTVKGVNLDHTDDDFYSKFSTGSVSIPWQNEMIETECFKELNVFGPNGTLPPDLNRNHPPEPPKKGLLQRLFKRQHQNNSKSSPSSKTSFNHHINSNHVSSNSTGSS"}, "mTOR": {"target": "mTOR (Homo sapiens, UniProt P42345)"}, "PIM3": {"target": "PIM3 (Homo sapiens, UniProt Q86V86)"}, "CDK8/CycC": {"target": "CDK8/CycC (Homo sapiens, UniProt P49336)", "sequence (P49336 whole entry)": "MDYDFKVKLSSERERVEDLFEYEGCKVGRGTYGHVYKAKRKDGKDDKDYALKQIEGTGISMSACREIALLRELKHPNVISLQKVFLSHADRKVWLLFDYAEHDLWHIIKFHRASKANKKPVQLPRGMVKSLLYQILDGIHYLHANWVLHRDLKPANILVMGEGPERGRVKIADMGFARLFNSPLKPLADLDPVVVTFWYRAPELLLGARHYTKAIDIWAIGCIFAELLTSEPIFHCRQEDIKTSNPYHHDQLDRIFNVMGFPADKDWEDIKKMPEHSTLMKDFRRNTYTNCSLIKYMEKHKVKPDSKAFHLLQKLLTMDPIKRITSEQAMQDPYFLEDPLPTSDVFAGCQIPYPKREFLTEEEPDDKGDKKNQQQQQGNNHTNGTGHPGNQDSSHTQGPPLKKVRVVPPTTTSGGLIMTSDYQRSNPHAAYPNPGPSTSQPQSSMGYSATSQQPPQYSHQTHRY", "sequence (P24863 whole entry partner)": "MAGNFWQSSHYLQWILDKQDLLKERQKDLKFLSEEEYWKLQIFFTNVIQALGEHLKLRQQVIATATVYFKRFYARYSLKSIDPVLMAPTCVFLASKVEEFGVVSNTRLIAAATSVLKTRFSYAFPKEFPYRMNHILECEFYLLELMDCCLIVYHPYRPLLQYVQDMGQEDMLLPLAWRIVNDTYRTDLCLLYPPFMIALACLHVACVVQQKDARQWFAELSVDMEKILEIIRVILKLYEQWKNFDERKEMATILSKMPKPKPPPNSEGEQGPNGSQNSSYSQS"}, "LIMK1": {"target": "LIMK1 (Homo sapiens, UniProt P53667)", "sequence (P53667 whole entry)": "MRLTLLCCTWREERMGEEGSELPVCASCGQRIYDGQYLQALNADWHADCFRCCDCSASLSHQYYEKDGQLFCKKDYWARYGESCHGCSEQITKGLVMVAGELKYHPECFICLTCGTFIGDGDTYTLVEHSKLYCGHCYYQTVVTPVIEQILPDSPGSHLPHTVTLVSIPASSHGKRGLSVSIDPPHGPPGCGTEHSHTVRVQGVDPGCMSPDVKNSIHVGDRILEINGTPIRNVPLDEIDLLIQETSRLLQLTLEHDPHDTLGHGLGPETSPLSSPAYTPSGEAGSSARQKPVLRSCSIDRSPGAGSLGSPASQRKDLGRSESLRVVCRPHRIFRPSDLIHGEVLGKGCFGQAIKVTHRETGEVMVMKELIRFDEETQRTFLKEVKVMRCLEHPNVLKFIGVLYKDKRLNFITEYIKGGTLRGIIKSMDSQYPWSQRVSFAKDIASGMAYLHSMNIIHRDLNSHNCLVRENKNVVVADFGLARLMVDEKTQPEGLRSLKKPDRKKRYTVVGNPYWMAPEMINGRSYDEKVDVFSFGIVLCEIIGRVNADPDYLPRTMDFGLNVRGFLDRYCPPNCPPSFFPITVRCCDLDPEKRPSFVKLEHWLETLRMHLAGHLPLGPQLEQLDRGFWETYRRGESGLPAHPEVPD", "procedure": "Gini coefficients were calculated and the Lorenz curve (Fig 3B) was plotted by applying the Microsoft Excel spreadsheet provided by Graczyk [44].\nradiometric protein kinase assays."}, "TYRO3": {"target": "TYRO3 (Homo sapiens, UniProt Q06418)", "sequence (Q06418 41-890)": "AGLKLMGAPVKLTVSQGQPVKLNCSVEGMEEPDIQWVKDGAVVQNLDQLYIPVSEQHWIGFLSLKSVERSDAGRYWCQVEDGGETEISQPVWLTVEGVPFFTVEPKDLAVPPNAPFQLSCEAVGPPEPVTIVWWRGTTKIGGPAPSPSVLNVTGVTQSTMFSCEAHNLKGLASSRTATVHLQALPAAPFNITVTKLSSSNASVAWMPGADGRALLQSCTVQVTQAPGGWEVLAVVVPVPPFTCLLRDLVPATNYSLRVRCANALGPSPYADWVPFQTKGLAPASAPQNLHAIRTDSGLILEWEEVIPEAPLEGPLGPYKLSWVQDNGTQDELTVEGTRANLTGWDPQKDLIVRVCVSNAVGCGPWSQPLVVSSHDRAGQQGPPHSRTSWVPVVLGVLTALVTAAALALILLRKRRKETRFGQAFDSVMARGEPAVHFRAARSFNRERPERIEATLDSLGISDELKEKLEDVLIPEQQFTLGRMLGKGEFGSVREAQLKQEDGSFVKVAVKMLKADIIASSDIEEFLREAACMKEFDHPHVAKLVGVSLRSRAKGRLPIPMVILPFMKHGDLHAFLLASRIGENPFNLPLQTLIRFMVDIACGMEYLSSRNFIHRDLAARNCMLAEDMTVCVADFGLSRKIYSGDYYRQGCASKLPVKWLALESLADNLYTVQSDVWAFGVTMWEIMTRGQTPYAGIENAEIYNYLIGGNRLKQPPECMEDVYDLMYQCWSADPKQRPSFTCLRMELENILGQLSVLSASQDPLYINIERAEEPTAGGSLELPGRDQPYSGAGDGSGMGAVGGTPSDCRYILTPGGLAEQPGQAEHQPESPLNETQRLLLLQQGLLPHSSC"}},
  "data": [
    {"compound": "COc1ccc2c3ccnc(Cl)c3n(CC#N)c2c1", "note": "[AnnH75]", "values": [
      {"measurement": "residual activity at 1 µM, Mean", "setting": "GRK5", "result": "95 % of control"},
      {"measurement": "residual activity at 1 µM, Mean", "setting": "mTOR", "result": "90 % of control"},
      {"measurement": "residual activity at 1 µM, Mean", "setting": "PIM3", "result": "44 % of control"},
      {"measurement": "residual activity at 1 µM, Mean", "setting": "CDK8/CycC", "result": "18 % of control"},
      {"measurement": "residual activity at 1 µM, Mean", "setting": "LIMK1", "result": "57 % of control"},
      {"measurement": "residual activity at 1 µM, Mean", "setting": "TYRO3", "result": "93 % of control"}
    ]}
  ]
}
